US4649147A, “Treating elastin degradation with 1-(alkenoyl)azacycloalkyl carboxylic acids and derivatives” (G. D. Searle & Co., priority 1985, dated 1987)
pIC50: −log10 of the molar value.

How the values were obtained:
human leukocyte elastase = target: T1, human leukocyte elastase (Homo sapiens, UniProt P08246); assay: Inhibition of hydrolysis of methoxysuccinyl-ala-ala-pro-val-nitroanilide by human leukocyte elastase; assay type: biochemical; conditions: for pIC50: human leukocyte elastase, MSN substrate
T1 sequence (P08246 30-267): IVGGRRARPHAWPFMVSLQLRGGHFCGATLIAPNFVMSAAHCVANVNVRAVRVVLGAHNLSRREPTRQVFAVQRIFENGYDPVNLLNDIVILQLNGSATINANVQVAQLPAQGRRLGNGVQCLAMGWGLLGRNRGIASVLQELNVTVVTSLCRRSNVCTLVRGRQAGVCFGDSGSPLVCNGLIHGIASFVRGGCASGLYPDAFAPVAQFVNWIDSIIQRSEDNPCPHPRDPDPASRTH
Excerpt: The compounds useful in practicing the method of the invention are inhibitors of leucocyte elastase and cathepsin G. Since elastase is involved in the breakdown of elastin and subsequently involved in a number of disease states, a compound which blocks the action of elastase will be useful in the management, treatment and prevention of such diseases. […] Nakajima, K., et al., J. Biol. Chem., 254, 4027 (1979). This is useful in measuring inhibition of elastase because the hydrolysis of MSN is easily quantitated by measuring the release of p-nitroaniline spectrophotometrically. Therefore, the degree of elastase inhibition can be readily measured by noting the rate of inhibition of the hydrolysis of MSN. The compounds of the invention are therefore tested in vitro as follows. The rate of hydrolysis of methoxysuccinyl-ala-ala-pro-val-nitroanalide by human leukocyte elastase is monitored spectrophotometrically in the presence and absence of test compound. The inhibition of the enzymatic reaction by 20% or more at a given concentration of test compound is taken as positive inhibition of elastase. IC50 values are then determined.

[1] = target: mammalian prolyl-4-hydroxylase (Homo sapiens, UniProt P13674); assay: In vitro prolyl-4-hydroxylase inhibition; assay type: biochemical; conditions: purified mammalian enzyme
mammalian prolyl-4-hydroxylase, sequence (P13674 18-534): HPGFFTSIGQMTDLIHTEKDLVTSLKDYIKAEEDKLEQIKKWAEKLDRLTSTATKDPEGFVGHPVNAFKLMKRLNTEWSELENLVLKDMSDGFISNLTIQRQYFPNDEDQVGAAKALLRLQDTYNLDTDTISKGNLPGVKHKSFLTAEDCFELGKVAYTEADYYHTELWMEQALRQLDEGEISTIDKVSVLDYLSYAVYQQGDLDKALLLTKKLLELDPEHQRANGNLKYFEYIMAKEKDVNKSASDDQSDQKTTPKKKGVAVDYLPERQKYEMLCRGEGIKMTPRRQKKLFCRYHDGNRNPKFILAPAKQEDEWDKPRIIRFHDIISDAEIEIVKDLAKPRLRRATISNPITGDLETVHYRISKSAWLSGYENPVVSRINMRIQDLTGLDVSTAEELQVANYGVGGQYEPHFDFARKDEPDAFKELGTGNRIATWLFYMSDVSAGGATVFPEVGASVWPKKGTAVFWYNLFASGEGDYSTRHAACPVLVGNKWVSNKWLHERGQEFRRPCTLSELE
mammalian prolyl-4-hydroxylase, sequence (P07237 18-508 partner): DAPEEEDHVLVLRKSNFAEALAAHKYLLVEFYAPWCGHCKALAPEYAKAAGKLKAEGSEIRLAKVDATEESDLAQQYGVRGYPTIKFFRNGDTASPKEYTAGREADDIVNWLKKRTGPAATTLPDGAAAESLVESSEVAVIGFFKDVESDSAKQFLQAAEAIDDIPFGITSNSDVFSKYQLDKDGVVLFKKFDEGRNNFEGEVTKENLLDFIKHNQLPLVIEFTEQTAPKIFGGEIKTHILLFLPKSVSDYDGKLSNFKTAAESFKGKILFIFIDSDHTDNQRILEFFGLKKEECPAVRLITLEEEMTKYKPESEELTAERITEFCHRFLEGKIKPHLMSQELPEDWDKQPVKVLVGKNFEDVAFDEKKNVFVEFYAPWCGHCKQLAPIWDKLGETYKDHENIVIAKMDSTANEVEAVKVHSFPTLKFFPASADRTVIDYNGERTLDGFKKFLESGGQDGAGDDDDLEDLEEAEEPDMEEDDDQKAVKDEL
Excerpt: Fibrosis is a connective tissue disease characterized by overaccumulation of extracellular fibrous matrix components, particularly collagen. Since prolyl hydroxylation is required for active secretion and thermal stability of collagen, fibrosis could be treated by inhibitors of prolyl-4-hydroxylase, such as the compounds of this invention. See G. C. Fuller, J. Med. Chem., 24, 651-658 (1981). The following procedure is used to test the compounds in vitro for prolyl-4-hydroxylase inhibition.
Purified mammalian prolyl-4-hydroxylase [EC 1.14.11.2:prolyl-glycyl-peptide, 2-oxyglutarate: oxidoreductase] is incubated with substrates (i.e., native unhydroxylated collagen of either 60,000 molecular weight, Km 10^-8 M; or 90,000 molecular weight, Km 10^-11 M), α-ketoglutarate, oxygen, and enzyme cofactors, with or without the test compounds. End-point is determined by measuring release of tritiated water during the hydroxylation of H^3 -peptidyl proline or release of ^14 CO2 formed from the coupled decarboxylation of ^14 C-α-ketoglutarate. Data are reported as percent inhibition with test compound at a given concentration relative to the control assays without test compound.

[2] = system: bleomycin-induced lung fibrosis; assay: Bleomycin-induced lung fibrosis in male syrian hamsters; assay type: in vivo, syrian hamster; conditions: 100 mg/kg, day 21 relative to untreated animals
Excerpt: The procedure described by Kelley et al., J. Lab. Clin. Med., 96, 954-964 (1980), is used to test the compounds in vivo for activity against bleomycin-induced lung fibrosis in male syrian hamsters. […] Activities are reported as percent inhibitions at day 21 relative to untreated animals.

SMILES	pIC50 (human leukocyte elastase)	pIC50 [1]	also measured
CCCCCCCC/C=C\CCCCCCCC(=O)N1CCC[C@H]1C(=O)O [Example 1, 1-(1-oxo-9Z-octadecenyl)proline]	5.11	5.36	
CCCCCCCC/C=C\CCCCCCCC(=O)N1CCCC(C(=O)O)C1 (stereo not shown) [Example 2, 1-(1-oxo-9Z-ocadecenyl)-3-piperidinecarboxylic acid]	5.47	5.23	
CCCCCCCC/C=C\CCCCCCCC(=O)N1CCC(C(=O)O)CC1 [Example 3, 1-(1-oxo-9Z-octadecenyl)-4-piperidinecarboxylic acid]	5.34	5.05	
CCCCCCCC/C=C\CCCCCCCC(=O)N1CCC(C(=O)OCC)(c2ccccc2)CC1 [Example 4, ethyl 1-(1-oxo-9Z-octadecenyl)-4-phenyl-4-piperidinecarboxylate]			inhibition against elastase (human leukocyte elastase; at 20 mcM): 22%
CCCCCCCC/C=C\CCCCCCCC(=O)N1CCC(C(=O)O)(c2ccccc2)CC1 [Example 5, 1-(1-oxo-9Z-octadecenyl)-4-phenyl-4-piperidinecarboxylic acid]	5.92		
CCCCCCCC/C=C\CCCCCCCC(=O)N1CCC[C@H]1C(=O)OC [Example 6, 1-(1-oxo-9Z-octadecenyl)proline methyl ester]			Bleomycin-induced Fibrosis, % Inhib. of Hydroxyproline [2]: 30.1%; Bleomycin-induced Fibrosis, % Inhib. of Lung wt./body wt. [2]: 33.0%
